Reference: patent publication US20070015823A1, “Ambruticin VS compounds” (priority 2004, published 2007)

Experiments:
A. fumigatus ATCC 204305 = experiment: Broth microdilution antifungal susceptibility, NCCLS M38-A; format: cell-based, Aspergillus fumigatus; conditions: minimal concentration inhibiting >95% growth; average of at least two assays (except I-l and I-x)
A. flavus ATCC 204304 = experiment: as above; format: cell-based, Aspergillus flavus; conditions: minimal concentration inhibiting >95% growth; average of at least two assays (except I-l and I-x)

Molecule	MIC0 A. fumigatus ATCC 204305 (A. fumigatus ATCC 204305) [µg/mL]	MIC0 A. flavus ATCC 204304 (A. flavus ATCC 204304) [µg/mL]
CC[C@H]1O[C@@H](/C(C)=C/[C@H](C)/C=C/[C@H]2[C@@H](C)[C@@H]2/C=C/[C@@H]2O[C@H](CC(=O)O)C[C@H](N(C)C(=O)NCc3ccccc3)[C@H]2O)CC=C1C [I-p, (5S,6R)-5-(3-benzyl-1-methylureido)-6-hydroxypolyangioic acid]	32	32
CCC(=O)N(C)[C@H]1C[C@@H](CC(=O)O)O[C@@H](/C=C/[C@H]2[C@H](C)[C@@H]2/C=C/[C@@H](C)/C=C(\C)[C@H]2CC=C(C)[C@@H](CC)O2)[C@@H]1O [I-m, (5S,6R)-5-[N-methyl(propionamido)]-6-hydroxypolyangioic acid]	>32	>32
CC[C@H]1O[C@@H](/C(C)=C/[C@H](C)/C=C/[C@H]2[C@@H](C)[C@@H]2/C=C/[C@@H]2O[C@H](CCO)C[C@H](NCC(F)F)[C@H]2O)CC=C1C [I-jjj, (5S,6R)-5-(2,2-difluroethyl)aminopolyangi-1,6-diol]	8	8
CC[C@H]1O[C@@H](/C(C)=C/[C@H](C)/C=C/[C@H]2[C@@H](C)[C@@H]2/C=C/[C@@H]2O[C@H](CC(=O)O)C[C@H](NCc3ccc(OC)c(OC)c3)[C@H]2O)CC=C1C [I-hhh, (5S,6R)-5-(3,4-dimethoxybenzyl)amino-6-hydroxypolyangioic acid]	>32	>32
CC[C@H]1O[C@@H](/C(C)=C/[C@H](C)/C=C/[C@H]2[C@@H](C)[C@@H]2/C=C/[C@@H]2O[C@H](CC(=O)NCC(=O)OC)C[C@H](N(C)C)[C@H]2O)CC=C1C [I-ss, (5S,6R)-5-dimethylamino-6-hydroxy-N-(methoxycarbonylmethyl)polyangiamide]	4	8
methyl (5S,6R,16S,17S)-5-tert-butoxycarbonylamino-6-hydroxy-16,17-epxoy-16,17-dihydropolyangiate [V-b]	>32	>32
CC[C@H]1O[C@@H](/C(C)=C/[C@H](C)/C=C/[C@H]2[C@@H](C)[C@@H]2/C=C/[C@@H]2O[C@H](CC(=O)O)C[C@H](N(C)Cc3ccc4ccccc4c3)[C@H]2O)CC=C1C [I-f, (5S,6R)-5-(N-(2-naphthyl)methyl-methylamino)-6-hydroxypolyangioic acid]	8.0	4.67
CC[C@H]1O[C@@H](/C(C)=C/[C@H](C)/C=C/[C@H]2[C@@H](C)[C@@H]2/C=C/[C@@H]2O[C@H](CC(=O)O)C[C@H](NCC(F)F)[C@H]2O)CC=C1C [I-ggg, (5S,6R)-5-(2,2-difluoroethyl)amino-6-hydroxypolyangioic acid]	4	8
20,21-dihydro ambruticin VS4 [IV-e]	2.5	1
CC[C@H]1O[C@@H](/C(C)=C/[C@H](C)/C=C/[C@H]2[C@@H](C)[C@@H]2/C=C/[C@@H]2O[C@H](CC(=O)NCCO)C[C@H](N(C)C)[C@H]2O)CC=C1C [I-rr, (5S,6R)-5-dimethylamino-6-hydroxy-N-(2-hydroxyethyl)polyangiamide]	4	2
CC[C@H]1O[C@@H](/C(C)=C/C/C=C/[C@H]2[C@@H](C)[C@@H]2/C=C/[C@@H]2O[C@H](CC(=O)O)C[C@H](N(C)C)[C@H]2O)CC=C1C [II-a, (5S,6R)-5-dimethylamino-6-hydroxy-15-desmethylpolyangioic acid]	0.6	0.92
CC[C@H]1O[C@@H](/C(C)=C/[C@H](C)/C=C/[C@H]2[C@@H](C)[C@@H]2/C=C/[C@@H]2O[C@H](CC(=O)O)C[C@H](N)[C@H]2O)CC=C1C [Ambruticin VS-5, (5S,6R)-5-amino-6-hydroxypolyangioic acid, reference compound]	1.64	1.09
CC[C@H]1O[C@@H](/C(C)=C/[C@H](C)/C=C/[C@H]2[C@@H](C)[C@@H]2/C=C/[C@@H]2O[C@H](CC(=O)N(C)OC)C[C@H](N(C)C)[C@H]2O)CC=C1C [I-tt, (5S,6R)-5-dimethylamino-6-hydroxy-N-methoxy-N-methylpolyangiamide]	8	4
CC[C@H]1O[C@@H](/C(C)=C/[C@H](C)/C=C/[C@H]2[C@@H](C)[C@@H]2/C=C/[C@@H]2O[C@H](CC(=O)O)C[C@H](NC(=O)C(F)(F)F)[C@H]2O)CC=C1C [I-fff, (5S,6R)-5-trifluroacetamido-6-hydroxypolyangioic acid]	3	2
CC[C@H]1O[C@@H](/C(C)=C/[C@H](C)/C=C/[C@H]2[C@@H](C)[C@@H]2/C=C/[C@@H]2O[C@H](CC(=O)O)C[C@H](N(Cc3c[nH]cn3)Cc3c[nH]cn3)[C@H]2O)CC=C1C [I-g, (5S,6R)-5-{di [(4-imidazolyl)methyl]amino}-6-hydroxypolyangioic acid]	22.67	24.0
CC[C@H]1O[C@@H](/C(C)=C/[C@H](C)/C=C/[C@H]2[C@@H](C)[C@@H]2/C=C/[C@@H]2O[C@H](CC(=O)NCCN(C)C)C[C@H](N(C)C)[C@H]2O)CC=C1C [I-qq, (5S,6R)-5-dimethylamino-6-hydroxy-N-[(2-dimethylamino)ethyl]polyangiamide]	32	>32
CC1=CC[C@H](/C(C)=C/[C@H](C)/C=C/[C@H]2[C@@H](C)[C@@H]2/C=C/[C@@H]2O[C@H](CC(=O)O)C[C@H](N(C)C)[C@H]2O)O[C@@H]1C [III-a, 24-norambruticin VS-3]	0.71	1.6
CC[C@H]1O[C@@H](/C(C)=C/[C@H](C)/C=C/[C@H]2[C@@H](C)[C@@H]2/C=C/[C@@H]2O[C@H](CC(=O)O)C[C@H](NC(=O)OC)[C@H]2O)CC=C1C [I-bb, (5S,6R)-5-methoxycarbonylamino-6-hydroxypolyangioic acid]	16	32
CC[C@H]1O[C@@H](/C(C)=C/[C@H](C)/C=C/[C@H]2[C@@H](C)[C@@H]2/C=C/[C@@H]2O[C@H](CC=NO)C[C@H](NC)[C@H]2O)CC=C1C [I-zz, (5S,6R)-5-methylamino-6-hydroxypolyangial oxime]	12	8
CC[C@H]1O[C@@H](/C(C)=C/[C@H](C)/C=C/[C@H]2[C@@H](C)[C@@H]2/C=C/[C@@H]2O[C@H](CC(=O)O)C[C@H](N(C)Cc3nccs3)[C@H]2O)CC=C1C [I-x, (5S,6R)-5-(N-(2-thiazolyl)methyl-methylamino)-6-hydroxypolyangioic acid]	2	4
CC[C@H]1O[C@@H](/C(C)=C/[C@H](C)/C=C/[C@H]2[C@@H](C)[C@@H]2/C=C/[C@@H]2O[C@H](CC(=O)O)C[C@H](N(C)C)[C@H]2O)CC=C1C [Ambruticin VS-3, (5S,6R)-5-(dimethylamino)-6-hydroxypolyangioic acid, reference compound]	0.44	0.64
CC[C@H]1O[C@@H](/C(C)=C/[C@H](C)/C=C/[C@H]2[C@@H](C)[C@@H]2/C=C/[C@@H]2O[C@H](CCO)C[C@H](N(C)C)[C@H]2O)CCC1C (stereo partly drawn) [IV-c]	2	2
methyl (5S,6R,16R,17R)-5-tert-butoxycarbonylamino-6-hydroxy-16,17-epxoy-16,17-dihydropolyangiate [V-a]	>32	>32
CC[C@H]1O[C@@H](/C(C)=C/[C@H](C)/C=C/[C@H]2[C@@H](C)[C@@H]2/C=C/[C@@H]2O[C@H](CC(=O)OC)C[C@H](N(C)C(C)=O)[C@H]2O)CC=C1C [I-k, methyl (5S,6R)-5-[N-methyl(acetamido)]-6-hydroxypolyangioate]	>32	>32
CC[C@H]1O[C@@H](/C(C)=C/[C@H](C)/C=C/[C@H]2[C@@H](C)[C@@H]2/C=C/[C@@H]2O[C@H](CC(=O)O)C[C@H](NC(C)=O)[C@H]2O)CC=C1C [I-j, (5S,6R)-5-acetamido-6-hydroxypolyangioic acid]	32	>32
CC[C@H]1O[C@@H](/C(C)=C/[C@H](C)/C=C/[C@H]2[C@@H](C)[C@@H]2/C=C/[C@@H]2O[C@H](CC(=O)O)C[C@H](NC(C)C)[C@H]2O)CCC1C (stereo partly drawn) [IV-d]	2.5	0.88
CC[C@H]1O[C@@H](/C(C)=C/[C@H](C)/C=C/[C@H]2[C@@H](C)[C@@H]2/C=C/[C@@H]2O[C@H](CC(=O)O)C[C@H](N(C)C(=O)OC)[C@H]2O)CC=C1C [I-o]	16	32
C=CCNC(=O)O[C@H]1[C@H](/C=C/[C@H]2[C@H](C)[C@@H]2/C=C/[C@@H](C)/C=C(\C)[C@H]2CC=C(C)[C@@H](CC)O2)O[C@H](CC(=O)O)C[C@@H]1N(C)C(=O)NCC=C [I-cc, (5S,6R)-5-(3-allyl-1-methylureido)-6-(allylcarbamoyl)polyangioic acid]	>32	>32
(5S,6R,16R,17R)-5-amino-6-hydroxy-16,17-epxoy-16,17-dihydropolyangioic acid [V-c]	8	16
CC[C@H]1O[C@@H](/C(C)=C/[C@H](C)/C=C/[C@H]2[C@@H](C)[C@@H]2/C=C/[C@@H]2O[C@H](CC(=O)O)C[C@H](N(C)C(=O)OCC(C)C)[C@H]2O)CC=C1C [I-r, (5S,6R)-5-[N-methyl(isobutoxycarbonylamino)]-6-hydroxypolyangioic acid]	>32	>32
